Assay results reported in patent US20230374035A1, “RAS INHIBITORS” (Revolution Medicines, Inc., priority 2019, published 2023).
One block for each molecule: values may come before it.

Molecular target: NRAS Q61K (Homo sapiens, UniProt P01111+P62937, Q61K)
Test: Disruption of BRAF RBD interaction with Ras (FRET / MOA assay)
Format: biochemical
Details: read-out: NRAS Q61K FRET data IC50
Procedure: Compound is present in plate wells as a 10-point 3-fold dilution series starting at a final concentration of 30 μM. […] Compounds that facilitate disruption of a Ras:RAF complex are identified as those eliciting a decrease in the TR-FRET ratio relative to DMSO control wells.
Note—The following protocol describes a procedure for monitoring disruption of K-Ras G12C (GMP-PNP) binding to BRAF^RBD by a compound of the invention. This protocol may also be executed substituting other Ras proteins or nucleotides.
The purpose of this biochemical assay was to measure the ability of test compounds to facilitate ternary complex formation between a nucleotide-loaded K-Ras isoform and Cyclophilin A; the resulting ternary complex disrupts binding to a BRAF^RBD construct, inhibiting K-Ras signaling through a RAF effector. Data is reported as IC50 values.
Compound was present in plate wells as a 10-point 3-fold dilution series starting at a final concentration of 30 μM. […] Compounds that facilitate disruption of a K-Ras:RAF complex were identified as those eliciting a decrease in the TR-FRET ratio relative to DMSO control wells.

NRAS Q61K, sequence (P01111 whole entry Q61K): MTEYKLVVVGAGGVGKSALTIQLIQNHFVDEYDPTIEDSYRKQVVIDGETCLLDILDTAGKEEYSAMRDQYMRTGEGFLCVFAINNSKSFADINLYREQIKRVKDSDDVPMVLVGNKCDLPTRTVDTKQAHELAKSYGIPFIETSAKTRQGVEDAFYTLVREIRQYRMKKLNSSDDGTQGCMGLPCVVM
NRAS Q61K, sequence (P62937 whole entry): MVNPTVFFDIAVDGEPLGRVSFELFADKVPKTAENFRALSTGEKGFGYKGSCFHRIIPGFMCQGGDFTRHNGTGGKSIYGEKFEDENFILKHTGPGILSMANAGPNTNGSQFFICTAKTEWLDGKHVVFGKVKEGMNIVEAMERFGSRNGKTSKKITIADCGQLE

SMILES: CO[C@@H](C)c1ncccc1-c1c2c3cc(ccc3n1CC(F)F)-c1csc(n1)C[C@H](NC(=O)[C@H](C(C)C)N(C)C(=O)N1CC(N(C)C)C1)C(=O)N1CCC[C@H](N1)C(=O)OCC(C)(C)C2 (atropisomer, axis not shown) [Compound A316]
IC50: 10 to 100 nM

SMILES: CCn1c(-c2cccnc2[C@H](C)OC)c2c3cc(ccc31)-c1csc(n1)C[C@H](NC(=O)[C@H](C(C)C)N(C)C(=O)N(C)C1COC1)C(=O)N1CCC[C@H](N1)C(=O)OCC(C)(C)C2 (atropisomer, axis not shown) [Compound A334]
IC50: 10 to 100 nM

SMILES: CCn1c(-c2cccnc2[C@H](C)OC)c2c3cc(ccc31)-c1csc(n1)C[C@H](NC(=O)[C@H](C(C)C)N(C)C(=O)N1CC(S(C)(=O)=O)C1)C(=O)N1CCC[C@H](N1)C(=O)OCC(C)(C)C2 (atropisomer, axis not shown) [Compound A383]
IC50: 10 to 100 nM

SMILES: CCn1c(-c2cccnc2[C@H](C)OC)c2c3cc(ccc31)-c1csc(n1)C[C@H](NC(=O)[C@H](C(C)C)N(C)C(=O)N1CC[C@H](O)C1)C(=O)N1CCC[C@H](N1)C(=O)OCC(C)(C)C2 (atropisomer, axis not shown) [Compound A401]
IC50: 10 to 100 nM

SMILES: CCn1c(-c2cccnc2[C@H](C)OC)c2c3cc(ccc31)-c1csc(n1)C[C@H](NC(=O)[C@H](C(C)C)N(C)C(=O)N1C[C@@H]3OCCN(C)[C@H]3C1)C(=O)N1CCC[C@H](N1)C(=O)OCC(C)(C)C2 (atropisomer, axis not shown) [Compound A445]
IC50: 10 to 100 nM

SMILES: CCn1c(-c2cccnc2[C@H](C)OC)c2c3cc(ccc31)-c1csc(n1)C[C@H](NC(=O)[C@H](C(C)C)N(C)C(=O)N1CC3(CC(N(C)C4COC4)C3)C1)C(=O)N1CCC[C@H](N1)C(=O)OCC(C)(C)C2 (atropisomer, axis not shown) [Compound A511]
IC50: 10 to 100 nM

SMILES: CCn1c(-c2cccnc2[C@H](C)OC)c2c3cc(ccc31)-c1csc(n1)C[C@H](NC(=O)[C@H](C(C)C)N(C)C(=O)N1CC([C@H](C)COC)C1)C(=O)N1CCC[C@H](N1)C(=O)OCC(C)(C)C2 (atropisomer, axis not shown) [Compound A533]
IC50: 10 to 100 nM

SMILES: CCn1c(-c2cccnc2[C@H](C)OC)c2c3cc(ccc31)-c1csc(n1)C[C@H](NC(=O)[C@H](C(C)C)N(C)C(=O)N1CCN3C(=O)CN(C)C[C@H]3C1)C(=O)N1CCC[C@H](N1)C(=O)OCC(C)(C)C2 (atropisomer, axis not shown) [Compound A537]
IC50: 10 to 100 nM

SMILES: CCn1c(-c2cccnc2[C@H](C)OC)c2c3cc(ccc31)-c1csc(n1)C[C@H](NC(=O)[C@H](C(C)C)N(C)C(=O)N1CC([C@H](C)N(C)C)C1)C(=O)N1CCC[C@H](N1)C(=O)OCC(C)(C)C2 (atropisomer, axis not shown) [Compound A538]
IC50: 10 to 100 nM

SMILES: CCn1c(-c2cccnc2[C@H](C)OC)c2c3cc(ccc31)-c1csc(n1)C[C@H](NC(=O)[C@H](C(C)C)N(C)C(=O)N1CC(NS(C)(=O)=O)C1)C(=O)N1CCC[C@H](N1)C(=O)OCC(C)(C)C2 (atropisomer, axis not shown) [Compound A552]
IC50: 10 to 100 nM

SMILES: CCn1c(-c2cccnc2[C@H](C)OC)c2c3cc(ccc31)-c1csc(n1)C[C@H](NC(=O)[C@H](C(C)C)N(C)C(=O)N1CCC[C@H](N(C)C)C1)C(=O)N1CCC[C@H](N1)C(=O)OCC(C)(C)C2 (atropisomer, axis not shown) [Compound A569]
IC50: 10 to 100 nM

SMILES: CCn1c(-c2cccnc2[C@H](C)OC)c2c3cc(ccc31)-c1csc(n1)C[C@H](NC(=O)[C@H](C(C)C)N(C)C(=O)N1CC(CN(C)C)C1)C(=O)N1CCC[C@H](N1)C(=O)OCC(C)(C)C2 (atropisomer, axis not shown) [Compound A576]
IC50: 10 to 100 nM

SMILES: CCn1c(-c2cccnc2[C@H](C)OC)c2c3cc(ccc31)-c1csc(n1)C[C@H](NC(=O)[C@H](C(C)C)N(C)C(=O)N1CCO[C@@H](CN(C)C)C1)C(=O)N1CCC[C@H](N1)C(=O)OCC(C)(C)C2 (atropisomer, axis not shown) [Compound A591]
IC50: 10 to 100 nM

SMILES: CCn1c(-c2cccnc2[C@H](C)OC)c2c3cc(ccc31)-c1csc(n1)[C@@H](OC)[C@H](NC(=O)[C@H](C(C)C)N(C)C(=O)N(C)C)C(=O)N1CCC[C@H](N1)C(=O)OCC(C)(C)C2 (atropisomer, axis not shown) [Compound A598, (2S)—N-((6^3S,3S,4S,Z)-1^1-ethyl-3-methoxy-1^2-(2-((S)-1-methoxyethyl)pyridin-3-yl)-10,10-dimethyl-5,7-dioxo-6^1,6^2,6^3,6^4,6^5,6^6-hexahydro-1^1H-8-oxa-2(4,2)-thiazola-1(5,3)-indola-6(1,3)-pyridazinacycloundecaphane-4-yl)-3-methyl-2-(1,3,3-trimethylureido)butanamide]
IC50: 10 to 100 nM

SMILES: CCn1c(-c2cccnc2[C@H](C)OC)c2c3cc(ccc31)-c1csc(n1)C[C@H](NC(=O)[C@H](C(C)C)N(C)C(=O)N1CC(C#N)(N(C)C)C1)C(=O)N1CCC[C@H](N1)C(=O)OCC(C)(C)C2 [Compound A452]
IC50: 10 to 100 nM

Further lines, results first:

IC50: 10 to 100 nM
SMILES: CCn1c(-c2cccnc2[C@H](C)OC)c2c3cc(ccc31)-c1csc(n1)C[C@H](NC(=O)[C@H](C(C)C)N(C)C(=O)N1CC(C(=O)O)C1)C(=O)N1CCC[C@H](N1)C(=O)OCC(C)(C)C2 (atropisomer, axis not shown) [Compound A344]

IC50: 10 to 100 nM
SMILES: CCn1c(-c2cccnc2[C@H](C)OC)c2c3cc(ccc31)-c1csc(n1)C[C@H](NC(=O)[C@H](C(C)C)N(C)C(=O)N1CC(COC)C1)C(=O)N1CCC[C@H](N1)C(=O)OCC(C)(C)C2 (atropisomer, axis not shown) [Compound A387]

IC50: 10 to 100 nM
SMILES: CCn1c(-c2cccnc2[C@H](C)OC)c2c3cc(ccc31)-c1cc(O)cc(c1)C[C@H](NC(=O)[C@H](C(C)C)N(C)C(=O)[C@H]1CCC(=O)O1)C(=O)N1CCC[C@H](N1)C(=O)OCC(C)(C)C2 (atropisomer, axis not shown) [Compound A405]

IC50: 10 to 100 nM
SMILES: CCn1c(-c2cccnc2[C@H](C)OC)c2c3cc(ccc31)-c1csc(n1)C[C@H](NC(=O)[C@H](C(C)C)N(C)C(=O)N1C[C@@H]3OCCN(C)[C@@H]3C1)C(=O)N1CCC[C@H](N1)C(=O)OCC(C)(C)C2 (atropisomer, axis not shown) [Compound A444]

IC50: 10 to 100 nM
SMILES: CCn1c(-c2cccnc2[C@H](C)OC)c2c3cc(ccc31)-c1csc(n1)C[C@H](NC(=O)[C@H](C(C)C)N(C)C(=O)N1CC3(CC(N(C)C(C)C)C3)C1)C(=O)N1CCC[C@H](N1)C(=O)OCC(C)(C)C2 (atropisomer, axis not shown) [Compound A485]

IC50: 10 to 100 nM
SMILES: CCn1c(-c2cccnc2[C@H](C)OC)c2c3cc(ccc31)-c1csc(n1)C[C@H](NC(=O)[C@H](C(C)C)N(C)C(=O)N1CCCC[C@H](N(C)C)C1)C(=O)N1CCC[C@H](N1)C(=O)OCC(C)(C)C2 (atropisomer, axis not shown) [Compound A491]

IC50: 10 to 100 nM
SMILES: CCn1c(-c2cccnc2[C@H](C)OC)c2c3cc(ccc31)-c1csc(n1)C[C@H](NC(=O)[C@H](C(C)C)N(C)C(=O)N1CCC[C@H](N(C)C)CC1)C(=O)N1CCC[C@H](N1)C(=O)OCC(C)(C)C2 (atropisomer, axis not shown) [Compound A493]

IC50: 10 to 100 nM
SMILES: CCn1c(-c2cccnc2[C@H](C)OC)c2c3cc(ccc31)-c1csc(n1)C[C@H](NC(=O)[C@H](C(C)C)N(C)C(=O)N1CC3(CC(NCCOC)C3)C1)C(=O)N1CCC[C@H](N1)C(=O)OCC(C)(C)C2 (atropisomer, axis not shown) [Compound A512]

IC50: 10 to 100 nM
SMILES: CCn1c(-c2cccnc2[C@H](C)OC)c2c3cc(ccc31)-c1csc(n1)C[C@H](NC(=O)[C@H](C(C)C)N(C)C(=O)N1CCC13CCS(=O)(=O)CC3)C(=O)N1CCC[C@H](N1)C(=O)OCC(C)(C)C2 (atropisomer, axis not shown) [Compound A530]

IC50: 10 to 100 nM
SMILES: CCn1c(-c2cccnc2[C@H](C)OC)c2c3cc(ccc31)-c1csc(n1)C[C@H](NC(=O)[C@H](C(C)C)N(C)C(=O)N(C)CCc1ccncc1)C(=O)N1CCC[C@H](N1)C(=O)OCC(C)(C)C2 (atropisomer, axis not shown) [Compound A557]

IC50: 10 to 100 nM
SMILES: CCn1c(-c2cccnc2[C@H](C)OC)c2c3cc(ccc31)-c1csc(n1)C[C@H](NC(=O)[C@H](C(C)C)N(C)C(=O)N1C[C@H](N)[C@@H](O)C1)C(=O)N1CCC[C@H](N1)C(=O)OCC(C)(C)C2 (atropisomer, axis not shown) [Compound A581]

IC50: 10 to 100 nM
SMILES: CCn1c(-c2cccnc2[C@H](C)OC)c2c3cc(ccc31)-c1csc(n1)C[C@H](NC(=O)[C@H](C(C)C)N(C)C(=O)N1CCO[C@H](c3ccccc3)C1)C(=O)N1CCC[C@H](N1)C(=O)OCC(C)(C)C2 (atropisomer, axis not shown) [Compound A582]

IC50: 10 to 100 nM
SMILES: CCn1c(-c2cccnc2[C@H](C)OC)c2c3cc(ccc31)-c1csc(n1)C[C@H](NC(=O)[C@H](C(C)C)N(C)C(=O)N1CCN(C(=O)[C@@H]3CCCN3C)CC1)C(=O)N1CCC[C@H](N1)C(=O)OCC(C)(C)C2 (atropisomer, axis not shown) [Compound A596]

IC50: 10 to 100 nM
SMILES: CCn1c(-c2cccnc2[C@H](C)OC)c2c3cc(ccc31)-c1csc(n1)C[C@H](NC(=O)[C@H](C(C)C)N(C)C(=O)N1CCO[C@@H](c3ccccc3)C1)C(=O)N1CCC[C@H](N1)C(=O)OCC(C)(C)C2 (atropisomer, axis not shown) [Compound A600]

IC50: 10 to 100 nM
SMILES: CCn1c(-c2cccnc2[C@H](C)OC)c2c3cc(ccc31)-c1cc(O)cc(c1)C[C@H](NC(=O)[C@H](C(C)C)N(C)C(=O)C1CCC3(CCOC3)O1)C(=O)N1CCC[C@H](N1)C(=O)OCC(C)(C)C2 (stereo partly drawn) [Compound A409]
